In brackets after ≈: the same amount, converted by molar mass.
Columns and labels:
Solubility (Test F) = assay type: physicochemical; details: arithmetic mean if run multiple times
Description: The assay was conducted according to the Solubility Assay described in pages 164-167 of Wernevik, J. et al., “A Fully Integrated Assay Panel for Early Drug Metabolism and Pharmacokinetics Profiling”, Assay and Drug Development Technologies, 2020, 18(4), 157-179. Data are reported in Table 36 as solubility ([…]. Where the assay was run multiple times for the same compound, the arithmetic mean is reported.

[1] = Human Plasma Protein Binding (Test B); assay type: in vitro ADME; details: fraction unbound (fu)
Procedure, shortened: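 Values given as % free (fu) in human plasma, using the method of Wernevik et al. (2020). For compounds tested more than once, the arithmetic mean is given.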

[2] = Rat Hepatocyte Stability (Test E); assay type: in vitro ADME; details: rat, hepatocytes, geometric mean if run multiple times
Procedure, shortened: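 Intrinsic clearance in rat hepatocytes, expressed as μl/min/10^6 cells, following the literature integrated DMPK panel method. Repeat determinations combined as geometric mean.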

human RXFP1 = target: T1, human RXFP1 (Homo sapiens, UniProt Q9HBX9); assay: RXFP1 Hu cAMP (Test A); assay type: cell-based; design: expressed in transfected cells; host or cells: Jump-In T-REx CHO-K1 cells (ThermoFisher), induced with 10 ng/ml doxycycline for 24 h; details: RXFP1 Hu cAMP; for EC50: read-out: Test A EC50
T1 sequence (Q9HBX9 1-757): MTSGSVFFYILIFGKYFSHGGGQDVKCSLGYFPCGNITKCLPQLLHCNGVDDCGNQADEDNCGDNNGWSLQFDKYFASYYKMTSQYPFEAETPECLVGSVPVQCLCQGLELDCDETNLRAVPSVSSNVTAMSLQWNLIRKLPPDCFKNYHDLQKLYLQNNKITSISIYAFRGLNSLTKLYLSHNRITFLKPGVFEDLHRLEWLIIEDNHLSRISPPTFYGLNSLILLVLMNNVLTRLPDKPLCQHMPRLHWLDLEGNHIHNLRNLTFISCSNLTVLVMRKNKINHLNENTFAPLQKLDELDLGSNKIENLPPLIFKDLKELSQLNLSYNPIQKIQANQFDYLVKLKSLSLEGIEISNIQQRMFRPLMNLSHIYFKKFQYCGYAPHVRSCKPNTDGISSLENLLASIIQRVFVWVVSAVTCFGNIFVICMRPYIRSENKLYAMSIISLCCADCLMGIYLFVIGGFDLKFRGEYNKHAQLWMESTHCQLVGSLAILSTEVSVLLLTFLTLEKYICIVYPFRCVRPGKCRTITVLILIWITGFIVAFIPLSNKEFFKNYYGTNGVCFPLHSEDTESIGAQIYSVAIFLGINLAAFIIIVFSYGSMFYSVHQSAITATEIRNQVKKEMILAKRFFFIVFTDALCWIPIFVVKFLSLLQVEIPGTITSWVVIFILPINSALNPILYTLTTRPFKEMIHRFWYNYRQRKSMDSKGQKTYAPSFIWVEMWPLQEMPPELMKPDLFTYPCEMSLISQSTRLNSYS
Procedure, shortened: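 Doxycycline-induced (10 ng/ml, 24 h) CHO-K1 cells stably expressing human RXFP1; cAMP read by competitive HTRF after 2 h at room temperature, with 0.5 mM IBMX final.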

[3] = Human Liver Microsomal Stability (Test C); assay type: in vitro ADME; details: human, liver microsomes
Procedure, shortened: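 CLint (μl/min/mg protein) derived from compound depletion in human liver microsomes following a published standardized early-DMPK protocol; replicate determinations given as arithmetic mean.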

Row | solubility (Solubility (Test F)) | Test B Human Plasma Protein Binding (% free) [1] | hepatocyte CLint [2] | EC50 (human RXFP1) | microsomal CLint [3] | Test A Sinf (human RXFP1) | Compound
1 | 940 µM (≈ 492 µg/mL) | 17 % free | 28 µL/min/1e6 cells | 390 nM | < 3 µL/min/mg |  | COc1cc(C#N)c(O[C@H]2CC[C@@](C)(C(=O)O)CC2)cc1C(=O)N[C@@H]1[C@H]2CC[C@H](C2)[C@@H]1C(=O)NCC1CC1 [Example 71, (1S,4s)-4-(2-Cyano-5-(((1S,2R,3S,4R)-3-((cyclopropylmethyl)carbamoyl)bicyclo[2.2.1]heptan-2-yl)carbamoyl)-4-methoxyphenoxy)-1-methylcyclohexane-1-carboxylic acid]
2 | 200 µM (≈ 130 µg/mL) | 0.45 % free | 35 µL/min/1e6 cells | 19 nM | 34 µL/min/mg | 107% | COc1cc(F)c(O[C@H]2CC[C@@H](C(=O)O)CC2)cc1C(=O)N[C@@H]1[C@H]2CC[C@H](C2)[C@@H]1C(=O)Nc1cccc(S(F)(F)(F)(F)F)c1 [Example 182]
3 | 890 µM (≈ 505 µg/mL) | 16 % free | 23 µL/min/1e6 cells | 410 nM | 8 µL/min/mg | 105% | COc1cc(C#N)c(O[C@H]2CC[C@@](C)(C(=O)O)CC2)cc1C(=O)N[C@@H]1[C@H]2CC[C@H](C2)[C@@H]1C(=O)NCC1(OC)CCC1 [Example 80]
4 | 880 µM (≈ 500 µg/mL) | 25 % free | 14 µL/min/1e6 cells |  | < 3 µL/min/mg | 110% | COc1cc(C#N)c(O[C@H]2CC[C@@](C)(C(=O)O)CC2)cc1C(=O)N[C@@H]1[C@H]2CC[C@H](C2)[C@@H]1C(=O)NCC1(CO)CCC1 [Example 75]
5 | 990 µM (≈ 612 µg/mL) | 20 % free | 28 µL/min/1e6 cells | > 3500 nM | < 3 µL/min/mg | 100% | COc1cc(C#N)c(O[C@H]2CC[C@@](C)(C(=O)O)CC2)cc1C(=O)N[C@@H]1[C@H]2CC[C@H](C2)[C@@H]1C(=O)NCC1(O)CCC(F)(F)CC1 [Example 101]
6 | 540 µM (≈ 305 µg/mL) | 4.1 % free | 26 µL/min/1e6 cells | 20 nM | 64 µL/min/mg | 115% | CCC1(CNC(=O)[C@H]2[C@@H]3CC[C@@H](C3)[C@H]2NC(=O)c2cc(O[C@H]3CC[C@@](C)(C(=O)O)CC3)c(C#N)cc2OC)CCC1 [Example 86]
7 | 170 µM (≈ 101 µg/mL) | 1.7 % free | 29 µL/min/1e6 cells | 9.7 nM | > 300 µL/min/mg | 112% | COc1cc(C#N)c(O[C@H]2CC[C@@](C)(C(=O)O)CC2)cc1C(=O)N[C@@H]1[C@H]2CC[C@H](C2)[C@@H]1C(=O)NCC1(CC(C)C)CCC1 [Example 106]
8 | 530 µM (≈ 330 µg/mL) | 0.53 % free | 24 µL/min/1e6 cells | 470 nM | 31 µL/min/mg | 99% | COc1cc(NC(=O)[C@H]2[C@@H]3CC[C@@H](C3)[C@H]2NC(=O)c2cc(O[C@H]3CC[C@@H](C(=O)O)CC3)c(F)cc2OC)cc(C(F)(F)F)c1 [Example 194]
9 | 270 µM (≈ 176 µg/mL) | 0.37 % free | 83 µL/min/1e6 cells | 200 nM | 48 µL/min/mg | 108% | COc1cc(F)c(O[C@H]2CC[C@@H](C(=O)O)CC2)cc1C(=O)N[C@@H]1[C@H]2CC[C@H](C2)[C@@H]1C(=O)Nc1cccc(I)c1 [Example 185]
10 | 850 µM (≈ 533 µg/mL) | 0.55 % free | 28 µL/min/1e6 cells |  | 39 µL/min/mg | 110% | COc1cc(F)c(O[C@H]2CC[C@@H](C(=O)O)CC2)cc1C(=O)N[C@@H]1[C@H]2CC[C@H](C2)[C@@H]1C(=O)Nc1ccc(F)c(OC(F)(F)F)c1 [Example 21]
11 | > 1000 µM | 1.1 % free | 15 µL/min/1e6 cells | > 3600 nM | 20 µL/min/mg | 86% | COc1cc(F)c(O[C@H]2CC[C@@H](C(=O)O)CC2)cc1C(=O)N[C@@H]1[C@H]2CC[C@H](C2)[C@@H]1C(=O)Nc1cc(C#N)cc(C(F)(F)F)c1 [Example 191, (1S,4s)-4-(5-(((1S,2R,3S,4R)-3-((3-Cyano-5-(trifluoromethyl)phenyl)carbamoyl)bicyclo[2.2.1]heptan-2-yl)carbamoyl)-2-fluoro-4-methoxyphenoxy)cyclohexane-1-carboxylic acid]
12 | 440 µM (≈ 246 µg/mL) | 0.59 % free | 130 µL/min/1e6 cells | 420 nM | 31 µL/min/mg | 102% | COc1cc(F)c(O[C@H]2CC[C@@H](C(=O)O)CC2)cc1C(=O)N[C@@H]1[C@H]2CC[C@H](C2)[C@@H]1C(=O)Nc1cccc(Cl)c1 [Example 25]
13 | > 1000 µM | 0.93 % free | 61 µL/min/1e6 cells | 62 nM | 29 µL/min/mg | 105% | COc1cc(F)c(O[C@H]2CC[C@@H](C(=O)O)CC2)cc1C(=O)N[C@@H]1[C@H]2CC[C@H](C2)[C@@H]1C(=O)Nc1cccc(C(F)(F)F)c1 [Example 193]
14 | 24 µM (≈ 14.7 µg/mL) | 3.2 % free | < 1 µL/min/1e6 cells | > 50000 nM | < 3 µL/min/mg |  | COc1cc(F)c(O[C@H]2CC[C@@H](C(=O)O)CC2)cc1C(=O)N[C@H]1[C@@H](C(=O)Nc2ccc(F)c(C(F)(F)F)c2)[C@H]2CC[C@@H]1O2 [Example 49, (1R,4s)-4-(2-Fluoro-5-(((1S,2S,3R,4R)-3-((4-fluoro-3-(trifluoromethyl)phenyl)carbamoyl)-7-oxabicyclo[2.2.1]heptan-2-yl)carbamoyl)-4-methoxyphenoxy)cyclohexane-1-carboxylic acid]
15 | > 1000 µM | 3.6 % free | 18 µL/min/1e6 cells | > 40000 nM | < 3 µL/min/mg |  | COc1cc(F)c(O[C@H]2CC[C@@H](C(=O)O)CC2)cc1C(=O)N[C@@H]1[C@H]2CC[C@H](C2)[C@@H]1C(=O)Nc1cc(Cl)cnn1 [Example 30, (1S,4s)-4-(5-(((1S,2R,3S,4R)-3-((5-Chloropyridazin-3-yl)carbamoyl)bicyclo[2.2.1]heptan-2-yl)carbamoyl)-2-fluoro-4-methoxyphenoxy)cyclohexane-1-carboxylic acid]
16 | 810 µM (≈ 495 µg/mL) | 17 % free | 94 µL/min/1e6 cells | > 9400 nM | 17 µL/min/mg |  | COc1cc(C#N)c(O[C@H]2CC[C@@](C)(C(=O)O)CC2)cc1C(=O)N[C@@H]1[C@H]2CC[C@H](C2)[C@@H]1C(=O)NCc1nccc(C(F)F)n1 [Example 114]
17 | 820 µM (≈ 451 µg/mL) | 4.2 % free | 21 µL/min/1e6 cells | 720 nM | 35 µL/min/mg | 89% | COc1cc(C#N)c(O[C@H]2C[C@@]3(C2)C[C@H](C(=O)O)C3)cc1C(=O)N[C@@H]1[C@H]2CC[C@H](C2)[C@@H]1C(=O)NCC1(C)CCC1 (single isomer, unassigned) [Example 6, (2R*,4r,6R)-6-(2-Cyano-4-methoxy-5-(((1S,2R,3S,4R)-3-(((1-methylcyclobutyl)methyl)carbamoyl)bicyclo[2.2.1]heptan-2-yl)carbamoyl)phenoxy)spiro[3.3]heptane-2-carboxylic acid]

From patent US11667602B2, “Compounds and their use” (AstraZeneca AB, priority 2020, dated 2023)
